Measured values: article PMC5374420, “In Search of Small Molecule Inhibitors Targeting the Flexible CK2 Subunit Interface” (Pharmaceuticals, 2017)
Where a SMILES comes first, the peptide text is derived from it. Bridges are numbered along the chain shown (N, C = ends). The star is where a group is joined. Cbz = O=C(OCc1ccccc1)*; CH2F = FC*

Key:
[1] = target: T1, CK2 holoenzyme (CK2α + CK2β) (Homo sapiens, UniProt P68400); assay: CK2-mediated phosphorylation of GST-Olig2 and of CK2β (autoradiography); assay type: biochemical; details: 25 µM peptide
T1 construct: made in house
Protocol: Figure 2 CK2β-derived cyclic peptides inhibit CK2 activity in vitro. (A) a series of cyclized CK2β-derived peptide analogues varying in length from eight to 11 amino acids were tested for their effect on the phosphorylation of eIF2β-derived peptide substrate whose phosphorylation relies on the holoenzyme formation. Representative data shown from two independent experiments; (B) structure of Pc 11 (CC); (C) antagonist effect of Pc 11 (CC) on CK2-mediated phosphorylation of the CK2β-dependent substrate Olig2. CK2α was incubated alone or with CK2β in the absence or presence of 25 µM random Pc 11 (CC) or Pc 11 (CC) for 15 min at 4 °C, followed by the addition of GST (Gluthatione S-Transferase)-Olig2 (5 μg) and 25 μM [γ-^32P]ATP/MgCl2 for 5 min at room temperature. Phosphorylated proteins were separated by SDS/PAGE (Sodium dodecylsulfate/ Polyacrylamide gel electrophoresis) and analyzed by autoradiography. The gel was stained with coomassie blue to visualize GST-Olig2. TEXT PRINTED IN THE PICTURE: (A) no label printed: IC50 = 1-3 μM DOUBTS OF THE COPYIST ABOUT THIS PICTURE: Panel A: "IC50 = 1-3 μM" is printed once inside the plot, near the falling curves, and is not tied to any one peptide.

[2] = tested on: p21 Thr145 phosphorylation, survivin expression, AKT activation; assay: Western blot of intracellular events (AKT, phospho-p21 Thr145, survivin); assay type: cell-based; details: 786-O cells, 12 h, increasing concentrations of CX-4945 (Figure S1)
Protocol: This was confirmed using the LIVE&DEAD^TM cell viability assay that provides a visual readout of cell integrity (Figure 8A lower panel). This cellular effect was also analyzed after treatment of WT or CK2β-depleted MCF-10A cells with increasing concentrations of TAT-Pc 13. TAT-Pc 13 caused a cell death in both cell types, which was already detectable at a concentration of 25 µM and became massive at 50–60 µM (Figure 8B). […] In order to investigate the intracellular events induced by TAT-Pc 13, MCF-10A cells were incubated with increasing concentrations of TAT-Pc 13 and analyzed by Western blot.
Figure 8 Cellular effects of TAT-Pc 13. (A) MCF-10A cells were incubated with 25 µM of TAT-Pc 13 for 3 h and imaged with phase microscopy (upper panel) or with increasing concentrations of TAT-Pc 13 for 2 h and cell viability was evaluated using the LIVE&DEAD™ assay. Live cells fluoresce bright green (530 nm), whereas dead cells fluoresce red-orange (645 nm) (lower panel, scale bare: 100 µm); (B) WT (○-○) or CK2β-depleted (●-●) MCF-10A cells were incubated for 4 h with increasing concentrations of TAT-Pc 13 and cell death was evaluated using the LIVE&DEAD™ assay recording fluorescence at 645 nm. Representative data shown from two independent experiments in duplicate; (C) MCF-10A cells were pre-treated in the absence or presence of 20 µM z-VAD for 5 h and then incubated for 4 h with 25 µM random TAT-Pc 13 or TAT-Pc 13 and cell viability was evaluated as in (A) (scale bare: 100 µm); and (D) intracellular events induced by increasing concentrations of TAT-Pc 13. After 12 h of treatment, 786-O cells were lysed and analyzed by Western blot. TEXT PRINTED IN THE PICTURE: (B) TAT-Pc 13: TAT-Pc 13 (μM): 48; TAT-Pc 13 (μM): 60 DOUBTS OF THE COPYIST ABOUT THIS PICTURE: Panel B: 48 and 60 are printed in red at the x axis, where dashed lines drop from the two curves at about 50 on the Cell death (%) axis. No measure name (e.g. IC50) is printed with them. […]

[3] = target: T2, CK2 holoenzyme (Homo sapiens, UniProt P68400); assay: CK2 kinase assay with CK2β-dependent eIF2β-derived peptide substrate; assay type: biochemical; details: result in words
T2 construct: made in house
Description: In a previous study, we used the X-ray structure of CK2β in the holoenzyme complex as a template for the design of a conformationally constrained 13-mer peptide (Pc 13) derived from the CK2β C-terminal domain and centred around the Tyr188 and Phe190 hotspots. Pc 13 is an eight-residue peptide (Arg186–His193) that contains a cluster of hydrophobic residues (Leu187, Tyr188 and Ile192) and three additional glycine residues, cyclized via two cysteine residues to ‘staple’ its conformation and to mimic the binding face of CK2β with CK2α [15]. […]
Figure 2 CK2β-derived cyclic peptides inhibit CK2 activity in vitro. […] Phosphorylated proteins were separated by SDS/PAGE (Sodium dodecylsulfate/ Polyacrylamide gel electrophoresis) and analyzed by autoradiography. […]
Figure 4 Inhibitory activity of a TAT-Pc analogue in vitro. […] CK2 activity was then determined with CK2β-dependent or independent peptide substrates; (B) [^35S]-labeled CK2α was incubated with biotinylated MBP-CK2β immobilized on streptavidin coated plates (preformed complex) in the absence (1) or presence (2) of TAT-Pc 13. […] After washing, the amount of [^35S]-labeled CK2α remaining in the complex was determined by radioactivity counting. […]

[4] = tested on: WT MCF-10A cells; assay: Cell death / viability, LIVE&DEAD assay, WT cells; assay type: cell-based; details: MCF-10A; 20 µM z-VAD or 30 µM Necrostatin-1 for 5 h, then 25 µM TAT-Pc 13 for 4 h
Protocol: Figure 8 Cellular effects of TAT-Pc 13. (A) MCF-10A cells were incubated with 25 µM of TAT-Pc 13 for 3 h and imaged with phase microscopy (upper panel) or with increasing concentrations of TAT-Pc 13 for 2 h and cell viability was evaluated using the LIVE&DEAD™ assay. Live cells fluoresce bright green (530 nm), whereas dead cells fluoresce red-orange (645 nm) (lower panel, scale bare: 100 µm); (B) WT (○-○) or CK2β-depleted (●-●) MCF-10A cells were incubated for 4 h with increasing concentrations of TAT-Pc 13 and cell death was evaluated using the LIVE&DEAD™ assay recording fluorescence at 645 nm. Representative data shown from two independent experiments in duplicate; (C) MCF-10A cells were pre-treated in the absence or presence of 20 µM z-VAD for 5 h and then incubated for 4 h with 25 µM random TAT-Pc 13 or TAT-Pc 13 and cell viability was evaluated as in (A) (scale bare: 100 µm); and (D) intracellular events induced by increasing concentrations of TAT-Pc 13. After 12 h of treatment, 786-O cells were lysed and analyzed by Western blot. TEXT PRINTED IN THE PICTURE: (B) TAT-Pc 13: TAT-Pc 13 (μM): 48; TAT-Pc 13 (μM): 60 DOUBTS OF THE COPYIST ABOUT THIS PICTURE: Panel B: 48 and 60 are printed in red at the x axis, where dashed lines drop from the two curves at about 50 on the Cell death (%) axis. No measure name (e.g. IC50) is printed with them.
Cells were seeded in 96-well microtiter plates at a concentration of 1 × 10^5 cells/mL and were allowed to attach for 24 h at 37 °C in 5% CO2. Cells were then exposed to different concentrations of TAT-Pc 13 for the indicated time. Cell viability was evaluated using the fluorescence-based LIVE&DEAD™ assay (Molecular Probes, Thermo Fisher Scientific, Courtaboeuf, France) according to the manufacturer. Images were taken with an Apotome-equipped Zeiss Axioimager microscope (Zeiss, Oberkochen, German) recording the fluorescence at 530 nm (Live cells) and 645 nm (dead cells) respectively using a FluoStar Optima plate reader (BMG LabTech, Ortenberg, Germany).

T1 sequence (P68400 whole entry): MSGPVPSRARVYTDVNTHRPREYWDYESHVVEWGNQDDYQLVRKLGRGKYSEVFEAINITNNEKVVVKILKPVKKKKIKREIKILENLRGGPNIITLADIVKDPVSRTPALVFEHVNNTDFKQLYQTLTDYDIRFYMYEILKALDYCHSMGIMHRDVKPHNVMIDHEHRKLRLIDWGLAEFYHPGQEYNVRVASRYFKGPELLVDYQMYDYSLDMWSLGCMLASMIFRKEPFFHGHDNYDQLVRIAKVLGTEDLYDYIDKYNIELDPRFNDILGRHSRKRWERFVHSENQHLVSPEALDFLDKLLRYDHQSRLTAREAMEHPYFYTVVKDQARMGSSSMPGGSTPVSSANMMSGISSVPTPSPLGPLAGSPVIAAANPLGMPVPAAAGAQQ
T2 sequence (P68400 whole entry): as above

CC[C@H](C)[C@@H]1NC(=O)[C@H](CCCCN)NC(=O)[C@H](Cc2ccccc2)NC(=O)CNC(=O)[C@H](Cc2ccc(O)cc2)NC(=O)[C@H](CC(C)C)NC(=O)[C@H](CCCNC(=N)N)NC(=O)[C@@H](N)CSSC[C@@H](C(=O)O)NC(=O)CNC(=O)[C@H](Cc2c[nH]cn2)NC1=O [Pc 11 (CC)] (H-CRLYGFKIHGC-OH; disulfide 1-11)
phosphorylation of CK2β in the holoenzyme [1]: significantly affected | Olig-2 phosphorylation ([1]; 15 min at 4 °C, then GST-Olig2 and 25 μM ATP for 5 min at room temperature): strong decrease

O=C(O)c1ccc2c(c1)nc(Nc1cccc(Cl)c1)c1ccncc12 [CX-4945, 5-(3-chlorophenylamino)benzo[c][2,6]naphthyridine-8-carboxylic acid, reference compound]
phosphorylation of p21 [2]: strongly inhibited

CC(C)C[C@@H]1NC(=O)[C@H](CCCNC(=N)N)NC(=O)[C@@H](N)CSSC[C@@H](C(=O)O)NC(=O)[C@H](CCCCN)NC(=O)[C@H](Cc2ccccc2)NC(=O)CNC(=O)[C@H](Cc2ccc(O)cc2)NC1=O [Pc 8 (CC)] (H-CRLYGFKC-OH; disulfide 1-8)
effect on phosphorylation of eIF2β peptide substrate [3]: inactive

CN1C(=O)C(Cc2c[nH]c3ccccc23)NC1=S (stereo not drawn) [Necrostatin-1, reference compound]
effect of inhibitor pre-treatment on TAT-Pc 13-induced cell death [4]: prevented

COC(=O)C[C@H](NC(=O)[C@H](C)NC(=O)[C@@H](NC(=O)OCc1ccccc1)C(C)C)C(=O)CF [z-VAD-FMK, reference compound] (Cbz-Val-Ala-Asp(OMe)-CH2F)
effect of inhibitor pre-treatment on TAT-Pc 13-induced cell death [4]: insensitive
